The results in this text go back to ChEMBL document CHEMBL1201862, “PubChem BioAssay data set” (2004).

Test systems include CAKI-1; DU-145; EKVX; HCT-116; HOP-92; KM12; LOX IMVI; M14; MCF7; MDA-MB-435; MOLT-4; NCI-H226; OVCAR-5; RPMI-8226; RXF 393; SK-MEL-2; SR; UACC-257; UACC-62; UO-31.
Common to all, as to experiment: NCI tumour cell line growth inhibition, 48 h

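Briefly, cells in 96-well plates were exposed to five compound concentrations for 48 h, and endpoints were estimated by linear interpolation. At the GI50, growth is halved.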 The source made the active and inactive calls. No stated cut-off is given here; in the data, active = GI50 up to about 1.1 µM and inactive = higher.

As to `COc1ccnc2c1C(=O)c1nc3ccccc3c3ccnc-2c13`, the GI50 was 0.181 µM (active) in the test on CAKI-1; 0.0479 µM (active) in the test on DU-145; 0.284 µM (active) in the test with EKVX; 0.0902 µM (active) in the test on HCT-116; 0.342 µM (active) in the test on HOP-92; 0.101 µM (active) in the test with KM12. Also, the GI50 was 0.155 µM (active) with LOX IMVI; 0.0418 µM (active) in the test with M14; 0.0807 µM (active) with MCF7; 0.396 µM (active) in the test on MDA-MB-435; 1.42 µM (inactive) in the test on MOLT-4; 0.17 µM (active) with NCI-H226. Further, the GI50 was 0.52 µM (active) in the test on OVCAR-5; 0.201 µM (active) in the test on RPMI-8226; 0.231 µM (active) with RXF 393; 0.789 µM (active) in the test on SK-MEL-2; 0.0343 µM (active) in the test with SR; 0.198 µM (active) in the test on UACC-257. In addition, the results for the GI50 in the test with UACC-62 and with UO-31 were 0.136 µM (active) and 0.161 µM (active), respectively.

As for `Cc1cc2c(cc1-c1cc3c(cc1C)C(C(C)C)=C(O)C(=O)/C3=C\Nc1cccc3c(N)cccc13)/C(=C/Nc1cccc3c(N)cccc13)C(=O)C(O)=C2C(C)C`, the GI50 in the test with CAKI-1, in the test on DU-145, with EKVX, with HCT-116, with HOP-92 and in the test on KM12 was > 100 µM (inactive) throughout. Moreover, the GI50 in the test on LOX IMVI is > 100 µM (inactive); in the test with M14, 48.5 µM (inactive); with MCF7 it was > 100 µM (inactive); with MDA-MB-435, > 100 µM (inactive); with MOLT-4 it was 37.4 µM (inactive); in the test on NCI-H226 it was > 100 µM (inactive). In addition, the GI50 in the test with OVCAR-5 is > 100 µM (inactive); in the test on RPMI-8226, > 100 µM (inactive); in the test on RXF 393, > 100 µM (inactive); in the test with SK-MEL-2 it was > 100 µM (inactive); in the test with SR, 65.8 µM (inactive); in the test with UACC-257, > 100 µM (inactive). Further, the GI50 is > 100 µM (inactive) in the test with UACC-62 and 30.8 µM (inactive) in the test on UO-31.

Take `Cc1ccc(OCC2OC(n3cnc4c(Cl)nc(Nc5cc(Cl)cc(Cl)c5)nc43)CC2Oc2ccc(C)cc2)cc1` (configuration not stated): the GI50 in the test with CAKI-1, in the test on DU-145, with EKVX, in the test on HCT-116, with HOP-92 and in the test with KM12 was > 100 µM (inactive) throughout. Also, the GI50 with LOX IMVI, with M14, in the test with MCF7, with MDA-MB-435, in the test with MOLT-4 and with NCI-H226 was > 100 µM (inactive) in each case. For the same compound, the GI50 in the test with OVCAR-5, with RPMI-8226, in the test with RXF 393, in the test on SK-MEL-2, in the test with SR and in the test on UACC-257 was > 100 µM (inactive) each time. Also, the GI50 in the test with UACC-62 and in the test on UO-31 was > 100 µM (inactive) in each case.

Turning to `CCN(CC)CCNc1ccc([N+](=O)[O-])c2nc3ccc(OC)cc3c(N)c12`, the GI50 in the test with CAKI-1 is 1.89 µM (inactive); in the test with DU-145, 1.65 µM (inactive); with EKVX, 1.7 µM (inactive); with HCT-116 it was 0.151 µM (active); in the test with HOP-92, 1.34 µM (inactive); with KM12, 1.12 µM (inactive). The GI50 with LOX IMVI is 0.172 µM (active); in the test on M14, 1.37 µM (inactive); with MCF7 it was 0.43 µM (active); in the test on MDA-MB-435 it was 1.45 µM (inactive); in the test with MOLT-4 it was 0.301 µM (active); with NCI-H226 it was 2.32 µM (inactive). Besides, the GI50 in the test on OVCAR-5 was 1.7 µM (inactive); in the test with RPMI-8226 it was 0.243 µM (active); with RXF 393, 1.16 µM (inactive); in the test on SK-MEL-2, 1.05 µM (active); with SR, 0.262 µM (active); in the test on UACC-257 it was 1.77 µM (inactive). The GI50 with UACC-62 is 1.7 µM (inactive); with UO-31, 1.67 µM (inactive).

`COc1ccc(/C=C\c2cc(OC)c(OC)c(OC)c2)cc1OCC(=O)O`: the GI50 with CAKI-1 was 48.2 µM (inactive); with DU-145, 6.46 µM (inactive); in the test with EKVX, > 96.8 µM (inactive); with HCT-116 it was 3.46 µM (inactive); with HOP-92, 9.89 µM (inactive); in the test on KM12, 5.86 µM (inactive). For the same compound, the GI50 in the test on LOX IMVI is 12.2 µM (inactive); in the test with M14, 3.79 µM (inactive); in the test on MCF7 it was 36.6 µM (inactive); with MDA-MB-435, 1.72 µM (inactive); in the test on MOLT-4, 6.41 µM (inactive); in the test with NCI-H226, 15.1 µM (inactive). The GI50 in the test on OVCAR-5 was > 100 µM (inactive); with RPMI-8226, 4.84 µM (inactive); in the test with RXF 393, 6.15 µM (inactive); with SK-MEL-2, 6.68 µM (inactive); in the test with SR, 3.89 µM (inactive); in the test with UACC-257 it was 5.61 µM (inactive). The GI50 is 4.99 µM (inactive) in the test on UACC-62 and 7.13 µM (inactive) in the test with UO-31.

With `CC(C)CCCC(C)[C@H]1CC[C@H]2n3c(nnc3-c3ccccc3)CCC[C@]12C` (some centres not stated), the GI50 in the test with CAKI-1 is 14 µM (inactive); with DU-145, 16.2 µM (inactive); in the test with HCT-116 it was 9.48 µM (inactive); in the test with HOP-92 it was 15.1 µM (inactive); with KM12 it was 28.8 µM (inactive); in the test with LOX IMVI it was 1.86 µM (inactive). The GI50 is 12.8 µM (inactive) in the test on M14; 5.97 µM (inactive) in the test with MCF7; 10.7 µM (inactive) in the test with MDA-MB-435; 3.96 µM (inactive) with MOLT-4; 14.8 µM (inactive) in the test on NCI-H226; 4.13 µM (inactive) with RPMI-8226. In addition, the GI50 in the test on RXF 393 was 11.5 µM (inactive); with SK-MEL-2, 12.4 µM (inactive); in the test with SR it was 4.06 µM (inactive); with UACC-257, 13.3 µM (inactive); in the test on UACC-62, 12.4 µM (inactive); in the test with UO-31 it was 10.4 µM (inactive).

On to `CCC(C)SC1SCC2C(=O)N(C)C3(CC3C)C(=O)OCC(NC(=O)c3nc4ccccc4cc3O)C(=O)NC(C)C(=O)N(C)C1C(=O)N(C)C1(CC1C)C(=O)OCC(NC(=O)c1nc3ccccc3cc1O)C(=O)NC(C)C(=O)N2C` (configuration not stated), for which the GI50 with CAKI-1 is 0.01 µM (active); in the test with DU-145, 0.000188 µM (active); in the test on EKVX, 0.00038 µM (active); in the test on HOP-92 it was 5.87e-05 µM (active); in the test with LOX IMVI, 2.6e-05 µM (active); in the test with M14, 0.000116 µM (active). In addition, the GI50 in the test on MCF7 is 1.2e-05 µM (active); with MDA-MB-435 it was 4.97e-05 µM (active); in the test on MOLT-4, 0.000128 µM (active); with NCI-H226, 4.99e-05 µM (active); with OVCAR-5, 0.00018 µM (active); in the test with RPMI-8226 it was 4.15e-05 µM (active). Moreover, the GI50 in the test on RXF 393 is 4.76e-05 µM (active); with SK-MEL-2, 4.37e-05 µM (active); in the test with SR, 2.79e-05 µM (active); in the test on UACC-257, 5.3e-05 µM (active); in the test with UACC-62, 1.55e-05 µM (active); with UO-31, 0.00275 µM (active).

For `COc1ccc(/C=C2/NC(=S)N=C2Cl)cc1`, the GI50 in the test on CAKI-1 was > 100 µM (inactive); in the test on DU-145 it was > 100 µM (inactive); with EKVX, > 100 µM (inactive); in the test with HCT-116 it was > 100 µM (inactive); in the test with HOP-92, > 100 µM (inactive); in the test on KM12, 58.3 µM (inactive). For the same compound, the GI50 with LOX IMVI, in the test on M14, with MCF7, in the test with MDA-MB-435, in the test with MOLT-4 and in the test with NCI-H226 was > 100 µM (inactive) throughout. The GI50 in the test with OVCAR-5 was 21.5 µM (inactive); in the test on RPMI-8226, > 100 µM (inactive); in the test on RXF 393, > 100 µM (inactive); in the test on SK-MEL-2, > 100 µM (inactive); in the test with SR, > 100 µM (inactive); in the test with UACC-257 it was > 100 µM (inactive). In addition, the GI50 in the test on UO-31 was > 100 µM (inactive).

Consider `Oc1cc(O)c2c(c1)O[C@H](c1cc(O)c(O)c(O)c1)[C@@H](O)C2` [GALLOCATECHIN], for which the GI50 in the test on CAKI-1 was 43.7 µM (inactive); in the test with DU-145, > 100 µM (inactive); in the test on EKVX, 24.8 µM (inactive); in the test with HCT-116 it was 17.9 µM (inactive); with HOP-92 it was > 10 µM (inactive); with LOX IMVI it was 20.5 µM (inactive). Further, the GI50 with M14 was 25.1 µM (inactive); in the test with MCF7 it was 18.8 µM (inactive); in the test with MDA-MB-435 it was 18.5 µM (inactive); in the test with MOLT-4, > 10 µM (inactive); in the test with NCI-H226, 28.8 µM (inactive); with OVCAR-5 it was 18.8 µM (inactive). For the same compound, the GI50 in the test on RPMI-8226 was 20.7 µM (inactive); with RXF 393, 17 µM (inactive); in the test with SK-MEL-2, 24.6 µM (inactive); in the test on SR it was 19.6 µM (inactive); with UACC-257 it was > 100 µM (inactive); in the test on UO-31, 18.2 µM (inactive).

As for `CC1=Nc2c(C#N)ncn2N=C(C)C1`, the GI50 in the test on CAKI-1, in the test on DU-145, in the test with HCT-116, in the test on HOP-92, with KM12 and with LOX IMVI was > 100 µM (inactive) in each case. For the same compound, the GI50 with M14, with MCF7, in the test on MDA-MB-435, in the test with MOLT-4, in the test with NCI-H226 and in the test on OVCAR-5 was > 100 µM (inactive) in each case. Besides, the GI50 with RPMI-8226, in the test on RXF 393, with SK-MEL-2, in the test with SR, in the test on UACC-257 and in the test with UACC-62 was > 100 µM (inactive) throughout. For the same compound, the GI50 in the test with UO-31 was > 100 µM (inactive).
